Measured values taken from patent publication US20240270821A1, “GIP/GLP1/GCG TRI-RECEPTOR AGONISTS AND USES THEREOF” (priority 2023, published 2024).
Read-outs that look alike come from different tables or passages of the source. Starred links: 1 amine or outer side, 2 acyl side, 3 side chain; linkers in the order of their positions; H or OH if unused. Non-standard residues stand in square brackets, D forms with d. Residues, ends and D or L forms follow the SMILES beside them. Groups on a side chain read outwards from the residue. No end group written: not given here. *: point of attachment. Phe(4-NO2) = N[C@@H](Cc1ccc([N+](=O)[O-])cc1)C(=O)O; C20 diacid = O=C(O)CCCCCCCCCCCCCCCCCCC(=O)*; C18 diacid = O=C(O)CCCCCCCCCCCCCCCCC(=O)*; αMePhe(2-F) = C[C@](N)(Cc1ccccc1F)C(=O)O; γGlu = O=C(O)[C@H](CCC(=O)[*:2])N[*:1]; αMe4Pal = C[C@](N)(Cc1ccncc1)C(=O)O; αMeY = C[C@](N)(Cc1ccc(O)cc1)C(=O)O; 4Pal = N[C@@H](Cc1ccncc1)C(=O)O; αMeL = CC(C)C[C@](C)(N)C(=O)O; αMeS = C[C@](N)(CO)C(=O)O; Orn = NCCC[C@H](N)C(=O)O; AEEA = NCCOCCOCC(=O)O; Aib = CC(C)(N)C(=O)O

Key:
Format in all cases: cell-based
hGIPR [1] = target: T1, hGIPR (Homo sapiens, UniProt P48546); experiment: Functional cAMP activity in the presence of 1% HSA; conditions: read-out: cAMP Rel EC50, hGIPR
T1 sequence (P48546 22-466): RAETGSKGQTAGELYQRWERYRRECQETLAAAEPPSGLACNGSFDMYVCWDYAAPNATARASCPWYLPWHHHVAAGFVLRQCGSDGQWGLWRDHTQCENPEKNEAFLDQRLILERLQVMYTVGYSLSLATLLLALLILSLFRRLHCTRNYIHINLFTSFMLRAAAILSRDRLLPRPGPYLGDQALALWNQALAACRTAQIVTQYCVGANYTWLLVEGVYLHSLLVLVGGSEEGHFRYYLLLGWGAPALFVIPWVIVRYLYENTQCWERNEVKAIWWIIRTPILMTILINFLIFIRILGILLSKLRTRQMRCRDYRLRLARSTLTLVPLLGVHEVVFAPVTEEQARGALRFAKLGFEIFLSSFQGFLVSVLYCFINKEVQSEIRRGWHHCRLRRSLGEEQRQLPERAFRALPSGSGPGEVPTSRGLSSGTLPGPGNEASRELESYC

hGcgR = hGcgR (Homo sapiens, UniProt P47871); experiment: Functional cAMP activation in the presence of 0.1% casein (no HSA); conditions: read-out: Relative cAMP EC50, hGcgR;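 note: intracellular cAMP rise after 30 min at 37 °C, read by HTRF against a cAMP standard curve, scaled from buffer only (0%) to maximal control ligand response (100%)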
hGLP-1R [2] = target: T2, hGLP-1R (Homo sapiens, UniProt P43220); experiment: Functional cAMP activity in the presence of 1% HSA; conditions: read-out: cAMP Rel EC50, hGLP-1R
hGIPR [3] = target: T1, hGIPR; experiment: Functional cAMP activation in the presence of 0.1% casein (no HSA); conditions: read-out: Relative cAMP EC50, hGIPR;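 for Relative cAMP EC50, hGIPR: intracellular cAMP rise after 30 min at 37 °C read by HTRF against a standard curve, scaled between buffer alone (0%) and top control ligand concentration (100%), four-parameter fit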;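 for Relative cAMP EC50, hGLP-1R: intracellular cAMP rise after 30 min at 37 °C read by HTRF, normalized between buffer only (0%) and maximal control ligand (100%), four-parameter variable-slope fit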
human GcgR = human GcgR (Homo sapiens, UniProt P47871); experiment: Functional cAMP activity in the presence of 1% HSA; conditions: read-out: cAMP Rel EC50, hGcgR
hGLP-1R [4] = target: T2, hGLP-1R; experiment: Functional cAMP activation in the presence of 0.1% casein (no HSA); conditions: read-out: Relative cAMP EC50, hGLP-1R;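 for Relative cAMP EC50, hGIPR: intracellular cAMP rise after 30 min at 37 °C read by HTRF against a standard curve, scaled between buffer alone (0%) and top control ligand concentration (100%), four-parameter fit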;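 for Relative cAMP EC50, hGLP-1R: intracellular cAMP rise after 30 min at 37 °C read by HTRF, normalized between buffer only (0%) and maximal control ligand (100%), four-parameter variable-slope fit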
[5] = in the presence of 0.1% casein (no HSA), geometric mean

T2 sequence (P43220 24-463): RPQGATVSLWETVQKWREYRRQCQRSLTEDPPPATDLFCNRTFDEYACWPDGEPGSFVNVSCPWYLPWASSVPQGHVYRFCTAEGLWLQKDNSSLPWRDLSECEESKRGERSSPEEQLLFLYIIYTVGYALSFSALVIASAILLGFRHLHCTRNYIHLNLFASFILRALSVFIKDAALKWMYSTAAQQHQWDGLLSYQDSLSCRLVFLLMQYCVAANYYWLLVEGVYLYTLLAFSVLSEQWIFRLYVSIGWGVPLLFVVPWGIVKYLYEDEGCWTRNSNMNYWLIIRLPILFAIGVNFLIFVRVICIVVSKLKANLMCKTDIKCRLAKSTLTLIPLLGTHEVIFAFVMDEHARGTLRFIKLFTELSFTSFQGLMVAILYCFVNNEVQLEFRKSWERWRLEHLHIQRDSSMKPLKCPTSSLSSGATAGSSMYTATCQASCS
human GcgR, sequence (P47871 26-477): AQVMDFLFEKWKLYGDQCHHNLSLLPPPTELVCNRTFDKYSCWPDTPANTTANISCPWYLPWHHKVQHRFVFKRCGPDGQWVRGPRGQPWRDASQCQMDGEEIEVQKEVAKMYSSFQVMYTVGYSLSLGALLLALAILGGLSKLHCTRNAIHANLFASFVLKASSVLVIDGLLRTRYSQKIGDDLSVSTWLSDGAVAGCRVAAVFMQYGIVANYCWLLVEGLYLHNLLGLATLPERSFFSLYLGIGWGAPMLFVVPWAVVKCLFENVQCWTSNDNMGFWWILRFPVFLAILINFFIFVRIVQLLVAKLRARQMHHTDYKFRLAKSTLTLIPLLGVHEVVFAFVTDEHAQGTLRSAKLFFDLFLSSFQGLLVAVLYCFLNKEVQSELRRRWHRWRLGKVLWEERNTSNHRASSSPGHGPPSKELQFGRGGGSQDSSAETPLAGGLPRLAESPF
hGcgR, sequence (P47871 26-477): as above

Row | Molecule | EC50 (hGIPR [1]) [nM] | EC50 (hGcgR; [5]) [nM] | EC50 (hGLP-1R [2]) [nM] | EC50 (hGIPR [3]; [5]) [nM] | EC50 (human GcgR) [nM] | EC50 (hGLP-1R [4]; [5]) [nM] | EC50 (hGcgR) [nM] | EC50 (hGIPR [3]) [nM] | EC50 (hGLP-1R [4]) [nM]
1 | H-Y[Aib]QGTFTSD[4Pal]S[Orn][αMeL]LDKK([AEEA-γGlu-C18 diacid])AQ[Aib]AFIE[αMeY]LIEGGPSSGAPPPSGS-NH2 [Example 836] | 26.7 | 17.1 | 103 | 0.294 | 2100 | 0.794 | – | – | –
2 | Y[Aib]QGTFTSD[4Pal]SQ[αMeL]LDKK([AEEA-γGlu-C18 diacid])AQ[αMe4Pal]AFIE[αMeY]LIEGGPSSGAPPPEGS-NH2 [Example 852] | 45.6 | 2.26 | 182 | 0.34 | 1230 | 0.871 | – | – | –
3 | H-Y[Aib]QGT[αMePhe(2-F)]TSD[4Pal]SI[αMeL]LD[Orn]K([AEEA-γGlu-C18 diacid])AQ[αMe4Pal][Orn]FI[dE][αMeY]LIEGGPSSGDPPPEGTE-NH2 [Example 731] | 1.27 | – | 27.4 | – | 291 | – | 2.35 | 0.0117 | 0.267
4 | H-Y[Aib]QGTFTSDFS[Orn][αMeL]LDKK([AEEA-AEEA-γGlu-C18 diacid])AQ[Aib]AFIEYLLE[Aib]GPSSGAPPPEGS-NH2 [Example 194] | 19.7 | 4.32 | 697 | 0.212 | 813 | 4.69 | – | – | –
5 | H-Y[Aib]QGT[αMePhe(2-F)]TSD[4Pal]SI[αMeL]LD[Orn]K([γGlu-γGlu-C18 diacid])AQ[αMe4Pal][Orn]FI[dE]YLIEGGPSSGEPPPEGT-NH2 [Example 541] | 1.28 | – | 38.7 | – | 520 | – | 4.26 | 0.0213 | 0.74
6 | H-Y[Aib]QGT[αMePhe(2-F)]TSDYSKLLDKIAQK([AEEA-γGlu-C20 diacid])AFIEYLIEGGPSSGAPPPSGE-NH2 [Example 356] | 19.2 | 4.76 | 206 | 0.0613 | 2680 | 0.599 | – | – | –
7 | CC[C@H](C)[C@H](NC(=O)[C@H](Cc1ccccc1)NC(=O)[C@H](C)NC(=O)C(C)(C)NC(=O)[C@H](CCC(N)=O)NC(=O)[C@H](C)NC(=O)[C@H](CCCCNC(=O)COCCOCCNC(=O)CC[C@H](NC(=O)CCCCCCCCCCCCCCCCC(=O)O)C(=O)O)NC(=O)[C@H](CCCCN)NC(=O)[C@H](CC(=O)O)NC(=O)[C@H](CC(C)C)NC(=O)[C@](C)(CC(C)C)NC(=O)[C@@H](NC(=O)[C@H](CO)NC(=O)[C@H](Cc1ccc(O)cc1)NC(=O)[C@H](CC(=O)O)NC(=O)[C@H](CO)NC(=O)[C@@H](NC(=O)[C@](C)(Cc1ccccc1F)NC(=O)[C@@H](NC(=O)CNC(=O)[C@H](CCC(N)=O)NC(=O)C(C)(C)NC(=O)[C@@H](N)Cc1ccc(O)cc1)[C@@H](C)O)[C@@H](C)O)[C@@H](C)CC)C(=O)N[C@@H](CCC(=O)O)C(=O)N[C@@H](Cc1ccc(O)cc1)C(=O)N[C@@H](CC(C)C)C(=O)N[C@@H](CCC(=O)O)C(=O)N[C@@H](CCC(=O)O)C(=O)NCC(=O)NCC(=O)N1CCC[C@H]1C(=O)N[C@@H](CO)C(=O)N[C@@H](CO)C(=O)NCC(=O)N[C@@H](C)C(=O)N1CCC[C@H]1C(=O)N1CCC[C@H]1C(=O)N1CCC[C@H]1C(=O)N[C@@H](CO)C(=O)N[C@@H](CCC(=O)O)C(=O)NCC(N)=O [Example 431] | 3.73 | – | 35.2 | – | 352 | – | 3.32 | 0.0157 | 0.392
8 | CC[C@H](C)[C@H](NC(=O)[C@H](Cc1ccccc1)NC(=O)[C@H](C)NC(=O)C(C)(C)NC(=O)[C@H](CCC(N)=O)NC(=O)[C@H](C)NC(=O)[C@H](CCCCNC(=O)COCCOCCNC(=O)CC[C@H](NC(=O)CCCCCCCCCCCCCCCCC(=O)O)C(=O)O)NC(=O)[C@H](CCCCN)NC(=O)[C@H](CC(=O)O)NC(=O)[C@H](CC(C)C)NC(=O)[C@](C)(CC(C)C)NC(=O)[C@@H](NC(=O)[C@H](CO)NC(=O)[C@H](Cc1ccc([N+](=O)[O-])cc1)NC(=O)[C@H](CC(=O)O)NC(=O)[C@H](CO)NC(=O)[C@@H](NC(=O)[C@](C)(Cc1ccccc1F)NC(=O)[C@@H](NC(=O)CNC(=O)[C@H](CCC(N)=O)NC(=O)C(C)(C)NC(=O)[C@@H](N)Cc1ccc(O)cc1)[C@@H](C)O)[C@@H](C)O)[C@@H](C)CC)C(=O)N[C@@H](CCC(=O)O)C(=O)N[C@@H](Cc1ccc(O)cc1)C(=O)N[C@@H](CC(C)C)C(=O)N[C@@H](CCC(=O)O)C(=O)N[C@@H](CCC(=O)O)C(=O)NCC(=O)NCC(=O)N1CCC[C@H]1C(=O)N[C@@H](CO)C(=O)N[C@@H](CO)C(=O)NCC(=O)N[C@@H](C)C(=O)N1CCC[C@H]1C(=O)N1CCC[C@H]1C(=O)N1CCC[C@H]1C(=O)N[C@@H](CCC(=O)O)C(N)=O [Example 495] (H-Y[Aib]QGT[αMePhe(2-F)]TSD[Phe(4-NO2)]SI[αMeL]LDKK([AEEA-γGlu-C18 diacid])AQ[Aib]AFIEYLEEGGPSSGAPPPE-NH2) | 5.74 | – | 53.8 | – | 205 | – | 1.75 | 0.0361 | 0.274
9 | H-Y[Aib]QGTFTSD[4Pal]SR[αMeL]LDKK([γGlu-γGlu-C18 diacid])AQ[αMe4Pal]AFIEYLIAGGPSSGAPPPSGSEE-NH2 [Example 962] | 9.71 | 3.13 | 132 | 0.0972 | 485 | 1.36 | – | – | –
10 | H-Y[Aib]QGTFTSD[4Pal]SK[αMeL]LDKK([γGlu-γGlu-C18 diacid])AQ[Aib]AFIEYLIE[Aib]GPSSGAPPPSGSEE-NH2 [Example 905] | 10.4 | 12.3 | 215 | 0.217 | 1390 | 2.52 | – | – | –
11 | Y[Aib]QGT[αMePhe(2-F)]TSD[4Pal][αMeS]I[αMeL]LD[Orn]K([γGlu-γGlu-C18 diacid])AQ[Aib][Orn]FI[dE][αMeY]LQEGGPSSGEPPPEGGEE-NH2 [Example 586] | 2.46 | – | 29.1 | – | 302 | – | 4.58 | 0.0461 | 0.593
12 | CC[C@H](C)[C@H](NC(=O)[C@H](Cc1ccccc1)NC(=O)[C@H](C)NC(=O)C(C)(C)NC(=O)[C@H](CCC(N)=O)NC(=O)[C@H](C)NC(=O)[C@H](CCCCNC(=O)COCCOCCNC(=O)COCCOCCNC(=O)CC[C@H](NC(=O)CCCCCCCCCCCCCCCCCCC(=O)O)C(=O)O)NC(=O)[C@H](CCCCN)NC(=O)[C@H](CC(=O)O)NC(=O)[C@H](CC(C)C)NC(=O)[C@H](CC(C)C)NC(=O)[C@@H](NC(=O)[C@H](CO)NC(=O)[C@H](Cc1ccc(O)cc1)NC(=O)[C@H](CC(=O)O)NC(=O)[C@H](CO)NC(=O)[C@@H](NC(=O)[C@](C)(Cc1ccccc1F)NC(=O)[C@@H](NC(=O)CNC(=O)[C@H](CCC(N)=O)NC(=O)C(C)(C)NC(=O)[C@@H](N)Cc1ccc(O)cc1)[C@@H](C)O)[C@@H](C)O)[C@@H](C)CC)C(=O)N[C@@H](CCC(=O)O)C(=O)N[C@@H](Cc1ccc(O)cc1)C(=O)N[C@@H](CC(C)C)C(=O)N[C@@H](CC(C)C)C(=O)N[C@@H](CCC(=O)O)C(=O)NCC(=O)NCC(=O)N1CCC[C@H]1C(=O)N[C@@H](CO)C(=O)N[C@@H](CO)C(=O)NCC(=O)N[C@@H](C)C(=O)N1CCC[C@H]1C(=O)N1CCC[C@H]1C(=O)N1CCC[C@H]1C(=O)N[C@@H](CO)C(N)=O [Example 385] | 4.03 | 1 | 86.1 | 0.0141 | 700 | 0.235 | – | – | –
13 | H-Y[Aib]QGTFTSD[4Pal]SQ[αMeL]LDKK([γGlu-γGlu-C18 diacid])AQ[Aib]AFIE[αMeY]LLEGGPSSGAPPPSGSEE-NH2 [Example 945] | 42.5 | 18 | 555 | 0.246 | 2420 | 3.9 | – | – | –
14 | H-Y[Aib]QGTFTSD[4Pal]SQ[αMeL]LD[Orn]K([AEEA-γGlu-C18 diacid])AQ[αMe4Pal]AFIE[αMeY]LIE[Aib]GPSSGEPPPSGSEE-NH2 [Example 1097] | 27.3 | 6.16 | 141 | 0.136 | 752 | 1.59 | – | – | –
15 | H-Y[Aib]QGTFTSD[4Pal]SQ[αMeL]LD[Orn]K([AEEA-γGlu-C18 diacid])AQ[αMe4Pal]AFIEYLIA[Aib]GPSSGEPPPSGSEE-NH2 [Example 1095] | 8.73 | 2.75 | 159 | 0.065 | 337 | 1.17 | – | – | –
16 | Y[Aib]QGTFTSD[4Pal]SQ[αMeL]LD[Orn]K([γGlu-γGlu-C18 diacid])AQ[αMe4Pal]AFIEYLIAGGPSSGAPPPSGSEE-NH2 [Example 1031] | 17.3 | 6.98 | 152 | 0.146 | 1200 | 1.15 | – | – | –
